Data set [1] relates to patients following major abdominal surgery. As to the kind of experiment: M6G022 study: analgesic efficacy and tolerability of M6G and morphine following major abdominal surgery. Here is the method:
Pain relief, nausea and emesis were recorded for 24 to 48 hours after start of the patient controlled analgesia.
The study site personnel (with the exception of the pharmacy); representatives of the sponsoring company; and the organisation involved in monitoring, data management, or other aspects of the study were blinded to the study treatment. The use of midazolam, temazepam, zopiclone or other short-acting pre-operative anxiolytics was allowed. All patients received a standardised general anaesthetic consisting of propofol induction, with either isoflurane or sevoflurane maintenance. These inhalational agents are associated with a similar risk of PONV. Nitrous oxide was not allowed because of its emetic effects, and the risk of an imbalance in its use. An initial bolus of 1-3 μg/kg of fentanyl or 0.1-0.3 μg/kg of sufentanyl followed by further doses as required, was used for pre- and peri-operative analgesia. Post-operative analgesia was provided by the study drug.
The investigator could administer up to 5 ml of PCA study drug, on no more than two occasions in each 24 hour post-operative period, as rescue medication if the patient was in uncontrolled pain. […] The patients stayed on PCA for a minimum of 24 hours following surgery, but could continue up to 48 hours if clinically indicated.
No prophylactic antiemetic was given, although iv ondansetron (4 mg/2 ml) was available if the patient experienced severe nausea, or immediately following emesis. If this was ineffective further doses of ondansetron; or other agents such as cyclizine, prochlorperazine or perphenazine; were allowed.
Pain intensity at rest was assessed by the patients using the VRS-11 scale at baseline, 15, 30 and 45 minutes and 1, 2, 4, 6, 9, 12, 15, 18, 21 and 24 hours after the start of PCA. A numerical scale was chosen because of the practical difficulty for post-operative patients of completing a visual analogue scale. If the patient remained on PCA after 24 hours, the pain scores were recorded every 8 hours up to 48 hours. In addition, at the end of the study the patients and observers were asked to assess the acceptability of their pain relief over the entire study using a 5 point rating global scale ranging from very poor (1) to excellent (5). […] The total consumption of study drugs was calculated.
Emesis risk factors of female gender; history of motion sickness or PONV; or smoking status were recorded at screening. Post-operative nausea was assessed by the patient using a 4 point ordinal scale (none, mild, moderate, severe) and occurrence of vomiting or dry retching recorded (yes/no; and if yes, the number of episodes) pre-operatively (Day −1), at baseline, and at 1, 2, 4, 6, 9, 12, 15, 18, 21, 24, 32, 40 and 48 hours after administration of the test analgesic. Nausea and vomiting were also combined in a single scoring system (postoperative nausea & vomiting, PONV), with an episode of vomiting or dry retching being scored as a 3 (severe) on the nausea scale.
Sedation was assessed using a combination of a binary question (sleepy, yes or no) and a 3 point ordinal scale (mild, moderate, severe) if the patient was sedated. All adverse events were recorded, along with concomitant medication use, with particular attention being paid to the use of anti-emetics.
The Intention to Treat (ITT) set of patients comprised all those who had been exposed to study medication at least once. This analysis set was the basis for the main efficacy and all safety and demographic analyses. Data were double entered using interactive verification into a CLINTRIAL database (Version 3.3.3, Phase Forward, Waltham, Mass., USA), and analysed using SAS (version 8.2, SAS Institute Inc., Cary, N.C., USA).

Data set [2] deals with patients with pain treatment after surgery. Kind of data set: Meta analysis of four clinical studies with M6G pain treatment after surgery. The source says:
The four studies M6G001, M6G012, M6G015 and M6G022 are described in the following.
The following variables were included in the meta analysis:
Nausea (none, mild, moderate, severe)
Sedation (none, mild, moderate, severe)
Pain (none, mild, moderate, severe)

Turning to `CN1CC[C@]23c4c5ccc(O)c4O[C@H]2[C@@H](O)C=C[C@H]3[C@H]1C5` [Morphine, morphine], the “mean totals of PCA demands” value stood at 93.9 in data set [1] (4-48 h) and 28.8 in data set [1] (early post-operative period (up to 4 hours)). In data set [1] (baseline), the “patients with sedation score recorded as severe” value was 28.5%. The patients sedated in data set [1] (baseline (when given control of the PCA button)) came out at 88.0%. In addition, in data set [1] (loading and recovery doses before PCA), the “dose required to achieve comfort initially” value stood at 14.4 mg/70 kg. Further, the pain-free time in data set [2] (during first 24 hours) lay within 9.0 to 10.9 h. In addition, in data set [2] (human, in vivo, intravenous), the “patients with moderate to severe sedation” value worked out at 81.4%. The “patients with moderate to severe pain” value in data set [2] (time window 0 to 6 hours) was found to be 54.2%; in data set [2] (time window 6-24 hours), 34.0%. Besides, the “patients with moderate to severe nausea” value in data set [2] (worst assessment) is on record as 32.8%. The same compound showed a patients with vomiting in data set [2] (worst assessment) of 36.5%.

The values above are taken from patent publication US20110294843A1, “ADMINISTRATION SCHEME OF POLAR OPIOID METABOLITES FOR POST-OPERATIVE PAIN MANAGEMENT” (PAION UK Limited, priority 2008, published 2011).
